Among the data in US20230357269A1 (LES LABORATOIRES SERVIER, priority 2020, published 2023) are ring closure, yield of all isomers and IC50 values, retold here.

pIC50: −log10 of the molar value.

Chain of human recombinant LRRK2 protein (Q5S007 whole entry): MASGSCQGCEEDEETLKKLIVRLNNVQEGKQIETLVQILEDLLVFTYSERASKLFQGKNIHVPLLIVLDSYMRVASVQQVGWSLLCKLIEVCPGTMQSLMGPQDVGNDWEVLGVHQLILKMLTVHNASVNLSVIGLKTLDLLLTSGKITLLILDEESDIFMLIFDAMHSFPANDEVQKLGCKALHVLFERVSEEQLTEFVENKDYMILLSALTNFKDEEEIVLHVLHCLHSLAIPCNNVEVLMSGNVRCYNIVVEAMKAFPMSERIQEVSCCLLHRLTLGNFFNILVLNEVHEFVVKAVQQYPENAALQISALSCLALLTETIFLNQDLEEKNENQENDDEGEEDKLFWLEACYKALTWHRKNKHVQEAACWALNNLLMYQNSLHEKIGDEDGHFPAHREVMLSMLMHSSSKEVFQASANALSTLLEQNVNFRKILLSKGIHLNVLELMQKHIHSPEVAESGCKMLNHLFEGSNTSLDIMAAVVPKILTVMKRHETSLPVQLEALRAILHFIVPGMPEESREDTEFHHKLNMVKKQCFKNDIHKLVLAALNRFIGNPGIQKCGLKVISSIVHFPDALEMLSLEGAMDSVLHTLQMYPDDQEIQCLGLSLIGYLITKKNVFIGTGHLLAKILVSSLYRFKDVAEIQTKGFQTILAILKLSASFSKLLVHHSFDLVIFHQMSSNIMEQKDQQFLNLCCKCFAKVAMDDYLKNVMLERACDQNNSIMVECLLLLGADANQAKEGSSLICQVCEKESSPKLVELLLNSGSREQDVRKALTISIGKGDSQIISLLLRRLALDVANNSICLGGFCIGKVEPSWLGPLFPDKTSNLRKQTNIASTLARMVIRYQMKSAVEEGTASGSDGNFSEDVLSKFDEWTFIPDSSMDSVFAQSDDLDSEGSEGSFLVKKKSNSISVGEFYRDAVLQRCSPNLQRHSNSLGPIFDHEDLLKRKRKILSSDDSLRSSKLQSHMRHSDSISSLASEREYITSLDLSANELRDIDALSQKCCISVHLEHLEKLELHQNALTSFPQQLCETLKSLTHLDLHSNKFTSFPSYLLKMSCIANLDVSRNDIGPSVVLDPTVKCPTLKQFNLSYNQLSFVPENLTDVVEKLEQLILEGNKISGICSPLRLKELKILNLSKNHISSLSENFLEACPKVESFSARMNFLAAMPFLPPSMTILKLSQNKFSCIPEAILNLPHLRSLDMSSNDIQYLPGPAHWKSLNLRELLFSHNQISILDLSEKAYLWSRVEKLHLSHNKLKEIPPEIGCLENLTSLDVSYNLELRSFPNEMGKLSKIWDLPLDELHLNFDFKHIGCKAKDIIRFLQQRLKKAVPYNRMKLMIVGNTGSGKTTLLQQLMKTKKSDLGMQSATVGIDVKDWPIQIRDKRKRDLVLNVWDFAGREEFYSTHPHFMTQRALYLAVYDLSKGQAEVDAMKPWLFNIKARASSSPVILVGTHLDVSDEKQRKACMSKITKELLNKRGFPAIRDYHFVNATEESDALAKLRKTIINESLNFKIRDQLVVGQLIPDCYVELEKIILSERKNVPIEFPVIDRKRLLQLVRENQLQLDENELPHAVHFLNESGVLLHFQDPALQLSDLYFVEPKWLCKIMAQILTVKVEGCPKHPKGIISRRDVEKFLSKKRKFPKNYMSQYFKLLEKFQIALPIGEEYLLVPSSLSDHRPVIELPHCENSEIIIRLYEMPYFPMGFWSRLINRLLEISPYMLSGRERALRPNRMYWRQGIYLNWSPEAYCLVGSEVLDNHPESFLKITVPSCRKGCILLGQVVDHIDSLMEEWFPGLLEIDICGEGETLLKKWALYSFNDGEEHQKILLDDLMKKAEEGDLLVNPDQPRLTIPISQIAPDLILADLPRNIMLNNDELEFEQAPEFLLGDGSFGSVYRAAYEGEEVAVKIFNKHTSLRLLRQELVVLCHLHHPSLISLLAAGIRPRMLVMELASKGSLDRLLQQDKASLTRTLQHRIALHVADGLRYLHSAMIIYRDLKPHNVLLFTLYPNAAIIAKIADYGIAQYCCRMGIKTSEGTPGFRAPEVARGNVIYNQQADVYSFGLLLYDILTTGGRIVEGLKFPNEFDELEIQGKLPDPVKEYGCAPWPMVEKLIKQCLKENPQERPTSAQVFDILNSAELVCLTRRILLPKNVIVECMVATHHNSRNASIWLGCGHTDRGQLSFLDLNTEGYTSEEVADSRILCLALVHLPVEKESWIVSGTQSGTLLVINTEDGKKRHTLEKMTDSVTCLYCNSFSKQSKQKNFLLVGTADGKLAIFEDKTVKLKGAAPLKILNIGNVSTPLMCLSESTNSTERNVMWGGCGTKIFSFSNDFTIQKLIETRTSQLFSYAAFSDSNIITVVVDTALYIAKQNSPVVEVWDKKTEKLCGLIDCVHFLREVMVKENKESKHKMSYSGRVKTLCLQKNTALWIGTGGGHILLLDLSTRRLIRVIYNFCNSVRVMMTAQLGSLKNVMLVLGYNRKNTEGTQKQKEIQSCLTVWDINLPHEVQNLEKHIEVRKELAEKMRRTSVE

Tested on in the first data set: not given
Assay: not given
Particulars: from COCC(CCOc1ccc2c(c1)c(-c1cccc(CO)c1)nn2C1CCCCO1)NC(=O)OCc1ccccc1; other bond; cesium carbonate; acetonitrile; 4.47 mM; 90.0 °C; 6.0 h.
Take `COCC1CCOc2ccc3c(c2)c(nn3C2CCCCO2)-c2cccc(c2)COC(=O)N1` (centres unmarked): the ring closure, yield of all isomers came to 62.3%.

The same data set, now with this note: from O=C(NCCCOc1ccc2c(c1)c(-c1cc(Br)cc(CO)c1)nn2C1CCCCO1)OCc1ccccc1; other bond; NaH; toluene; 1.6 mM; 140.0 °C; 42.0 h.
`O=C1NCCCOc2ccc3c(c2)c(nn3C2CCCCO2)-c2cc(Br)cc(c2)CO1` (centres unmarked) returned a ring closure, yield of all isomers of 25.7%.

For the next data set, the target named is human recombinant LRRK2 protein (Homo sapiens (Human), UniProt Q5S007). As to the kind of experiment: LRRK2 Kinase Activity Assay (ADP-Glo). The data set is classed as biochemical. Particulars: LRRK2 wt; LRRKtide peptide and ATP substrates; 1h-incubation at 37° C. The method in brief:
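Recombinant human LRRK2 acted on LRRKtide peptide and ATP for 1 h at 37 °C. ADP formed was detected by ADP-Glo luminescence (ATP depletion, then ADP-to-ATP conversion and luciferase). IC50s came from curve fits over 10 concentrations (N=2).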
Regarding `C[C@@H]1CCNC(=O)OCc2cccc(n2)-c2n[nH]c3cc(F)c(cc23)O1` [Example 146, (13R)-16-fluoro-13-methyl-8,14-dioxa-10,19,20,23-tetraazatetracyclo[13.5.2.1^2,6.0^18,21]tricosa-1(20),2,4,6(23),15,17,21-heptaen-9-one], the pIC50 is over 8.00.

As for `O=C1NCCCOc2ccc3[nH]nc(c3c2)-c2cccc(n2)CO1` [Example 4, 8,14-dioxa-10,19,20,23-tetraazatetracyclo[13.5.2.1^2,6.0^18,21]tricosa-1(20),2,4, 6(23),15,17,21-heptaen-9-one], the pIC50 was over 8.00.

Regarding `CC1CCNC(=O)OCc2cccc(c2)-c2n[nH]c3ccc(cc23)O1` (centres unmarked) [Example 50, 13-methyl-8,14-dioxa-10,19,20-triazatetracyclo[13.5.2.1^2,6.0^18,21]tricosa-1(20),2,4,6(23),15,17,21-heptaen-9-one], the pIC50 is over 8.00.

As for `O=C1NCC(F)(F)COc2ccc3[nH]nc(c3c2)-c2cncc(n2)CO1` [Example 170, 12,12-difluoro-8,14-dioxa-4,10,19,20,23-pentaazatetracyclo[13.5.2.1^2,6.0^18,21]tricosa-1(20),2(23),3,5,15(22),16,18(21)-heptaen-9-one], the pIC50 is over 8.00.

`O=C1NCCCOc2ccc3[nH]nc(c3c2)-c2cc(cc(N3CCC4(COC4)C3)c2)CO1` [Example 14, 4-{2-oxa-6-azaspiro[3.4]octan-6-yl}-8,14-dioxa-10,19,20-triazatetracyclo[13.5.2.1^2,6.0^18,21]tricosa-1(20),2,4,6(23),15,17,21-heptaen-9-one]: the pIC50 is over 8.00.

For `COc1ncc2cc1COC(=O)NCC[C@@H](C)Oc1ccc3[nH]nc-2c3c1` [Example 143, (13R)-5-methoxy-13-methyl-8,14-dioxa-4,10,19,20-tetraazatetracyclo[13.5.2.1^2,6.0^18,21]tricosa-1(20),2,4,6(23),15,17,21-heptaen-9-one], the pIC50 is over 8.00.

Take `O=C1NCCCOc2ccc3[nH]nc(c3c2)-c2cc(cc(CN3CCOCC3)c2)CO1` [Example 41, 4-[(morpholin-4-yl)methyl]-8,14-dioxa-10,19,20-triazatetracyclo[13.5.2.1^2,6.0^18,21]tricosa-1(20),2,4,6(23),15,17,21-heptaen-9-one]: the negative-log IC50 (pIC50) is over 8.00.

As for `CCN(CC)c1cc2cc(c1)-c1n[nH]c3ccc(cc13)OCCCNC(=O)OC2` [Example 47, 4-(diethylamino)-8,14-dioxa-10,19,20-triazatetracyclo[13.5.2.1^2,6.0^18,21]tricosa-1(20),2,4,6(23),15,17,21-heptaen-9-one], the pIC50 was over 8.00.

On to `CC1CNC(=O)OCCn2cc(cn2)-c2n[nH]c3ccc(cc23)OC1` (centres unmarked) [Example 93, 12-methyl-8,14-dioxa-4,5,10,19,20-pentaazatetracyclo[13.5.2.1^2,5.0^18,21]tricosa-1(20),2(23),3,15(22),16,18(21)-hexaen-9-one], for which the pIC50 was over 8.00.

In the case of `COc1cc2cc(c1F)C(C)OC(=O)NCCCOc1ccc3[nH]nc-2c3c1` (centres unmarked) [Example 95, 5-fluoro-4-methoxy-7-methyl-8,14-dioxa-10,19,20-triazatetracyclo[13.5.2.1^2,6.0^18,21]tricosa-1(20),2(23),3,5,15(22),16,18(21)-heptaen-9-one], the pIC50 is over 8.00.

Take `O=C1NCCCOc2ccc3[nH]nc(c3c2)-c2cc(cc(N3CCC(N4CCOCC4)CC3)c2)CO1` [Example 38, 4-[4-(morpholin-4-yl)piperidin-1-yl]-8,14-dioxa-10,19,20-triazatetracyclo[13.5.2.1^2,6.0^18,21]tricosa-1(20),2,4,6(23),15,17,21-heptaen-9-one]: the pIC50 was over 8.00.

In the case of `CO[C@@H]1CCN(c2cc3nc(n2)COC(=O)NCC[C@@H](C)Oc2ccc4[nH]nc-3c4c2)C1` [Example 137, (13R)-4-[(3R)-3-methoxypyrrolidin-1-yl]-13-methyl-8,14-dioxa-5,10,19,20,23-pentaazatetracyclo[13.5.2.1^2,6.0^18,21]tricosa-1(20),2,4,6(23),15,17,21-heptaen-9-one], the pIC50 was over 8.00.

Turning to `C[C@@H]1OC(=O)NCCCOc2ccc3[nH]nc(c3c2)-c2cccc1c2` [Example 65, (7S)-7-methyl-8,14-dioxa-10,19,20-triazatetracyclo[13.5.2.1^2,6.0^18,21]tricosa-1(20),2(23),3,5,15(22),16,18(21)-heptaen-9-one], the pIC50 is 7.00 to 8.00.

In the case of `O=C1NCCCOc2ccc3[nH]nc(c3c2)-c2cc(cc(N3CCNCC3)c2)CO1` [Example 81, 4-(piperazin-1-yl)-8,14-dioxa-10,19,20-triazatetracyclo[13.5.2.1^2,6.0^18,21]tricosa-1(20),2(23),3,5,15(22),16,18(21)-heptaen-9-one], the pIC50 was over 8.00.

Turning to `O=C1NC[C@@H](F)COc2ccc3[nH]nc(c3c2)-c2cnn(n2)CCO1` [Example 174, (12R)-12-fluoro-8,14-dioxa-4,5,10,19,20,23-hexaazatetracyclo[13.5.2.1^2,5.0^18,21]tricosa-1(20),2(23),3,15,17,21-hexaen-9-one], the pIC50 was over 8.00.
